Laboratory results: ChEMBL document CHEMBL4396913, “Synthesis and biological evaluation of hybrid quinolone-based quaternary ammonium antibacterial agents” (Eur J Med Chem, 2019)
Calls of active or inactive are those of the source. The rule behind the calls is not given here.

What was measured:
[1] = Drug uptake in Escherichia coli ATCC 8739 assessed as membrane accumulation and affinity to cell structure at 128 ug/ml incubated for 30 mins by laser confocal microscopy; assay type: ADME; settings: 0.5 h
Escherichia coli [2] = assay: Induction of inner membrane permeabilization in Escherichia coli ATCC 8739 assessed as increase in release of cytoplasmic beta galactosidase using ONPG as substrate at above bactericidal concentration incubated for 90 mins compound added with bacterial cells after lag time of about 10 mins by spectrophotometry; assay type: organism-based
Streptococcus pneumoniae = assay: Antibacterial activity against Streptococcus pneumoniae cultured in MH medium assessed as reduction in bacterial growth incubated for 48 hrs by microbroth dilution method; assay type: functional
Escherichia coli [3] = assay: Antibacterial activity against Escherichia coli ATCC 8739 assessed as reduction in cell number with morphological disorders at 128 ug/ml incubated for 30 mins by laser confocal microscopy; assay type: functional, organism-based
Escherichia coli [4] = assay: Antibacterial activity against […] Escherichia coli ATCC 8739 assessed as reduction in bacterial growth incubated for 48 hrs in presence of 50 ug/ml […], PAbetaN by microbroth dilution method; assay type: functional; settings: ATCC 8739, 48 h
DNA gyrase = DNA gyrase (Escherichia coli, UniProt P0AES4+P0AES6); assay: Inhibition of Escherichia coli DNA gyrase super-coiling activity using relaxed pNO1 DNA as substrate incubated for 30 mins by fluorescence assay; assay type: protein-complex assay
Staphylococcus aureus [5] = assay: Biofilm degradation activity against Staphylococcus aureus ATCC 6538 assessed as biofilm formation at antibacterial MIC incubated for 24 hrs compound added post-biofilm formation by total biomass crystal violet staining-based method; assay type: functional
[6] = Drug uptake in Escherichia coli ATCC 8739 assessed as cellular accumulation treated with 100 uM CCCP for 10 mins prior to compound challenge for 0.5 hrs by laser confocal microscopy; assay type: ADME
Pseudomonas aeruginosa = assay: Bactericidal activity against Pseudomonas aeruginosa ATCC 9027 cultured in MH medium assessed as reduction in bacterial survival incubated for 48 hrs by microbroth dilution method; assay type: functional; settings: ATCC 9027, 48 h
HEK293 = assay: Cytotoxicity against human HEK293 cells assessed as cell viability upto 20 uM incubated for 72 hrs by MTT assay; assay type: cell-based; settings: hek293, 72 h
Enterococcus hirae [7] = assay: Antibacterial activity against Enterococcus hirae ATCC 1052 cultured in BHI medium assessed as reduction in bacterial growth incubated for 48 hrs by microbroth dilution method; assay type: functional; settings: ATCC 1052, 48 h
Escherichia coli [8] = assay: Induction of inner membrane permeabilization in Escherichia coli ATCC 8739 assessed as increase in release of cytoplasmic beta galactosidase using ONPG as substrate at 128 ug/ml incubated for 90 mins compound added with bacterial cells after lag time of about 10 mins by spectrophotometry; assay type: organism-based
Staphylococcus aureus [9] = assay: Antibiofilm activity against Staphylococcus aureus ATCC 25923 pre-formed mature biofilm assessed as reduction in biofilm biomass at 40 uM incubated for 24 hrs compound added post biofilm formation by crystal violet staining based assay relative to control; assay type: functional; settings: ATCC 25923, 24 h
Escherichia coli [10] = assay: Antibacterial activity against Escherichia coli ATCC 8739 assessed as bacterial cell swelling followed by non-divisional long cord formation and cell aggregates formation at 128 ug/ml incubated for 30 mins by laser confocal microscopy; assay type: functional, organism-based
Staphylococcus aureus [11] = assay: Antibiofilm activity against Staphylococcus aureus ATCC 25923 pre-formed mature biofilm assessed as reduction in biofilm viability at 40 uM incubated for 24 hrs compound added post-biofilm formation by resazurin staining based assay relative to control; assay type: functional; settings: ATCC 25923, 24 h
Escherichia coli [12] = assay: Bactericidal activity against […] Escherichia coli ATCC 8739 assessed as reduction in bacterial survival incubated for 48 hrs in presence of 50 ug/ml […], PAbetaN by microbroth dilution method; assay type: functional; settings: ATCC 8739, 48 h
Enterococcus hirae [13] = assay: Bactericidal activity against Enterococcus hirae ATCC 1052 cultured in BHI medium assessed as reduction in bacterial survival incubated for 48 hrs by microbroth dilution method; assay type: functional; settings: ATCC 1052, 48 h
Staphylococcus aureus [14] = assay: Antibiofilm activity against Staphylococcus aureus ATCC 25923 assessed as biofilm biomass at <0.625 uM incubated for 24 hrs compound added prior to bacterial biofilm formation by crystal violet staining based assay; assay type: functional, organism-based
[15] = test system: Staphylococcus epidermidis; assay: Resistance index, ratio of MIC for methicillin resistant Staphylococcus epidermidis ATCC 13199 measured after 4 dilution steps to MIC for Staphylococcus epidermidis ATCC 13199 measured after 48 hrs incubation by microbroth dilution method; assay type: functional
[16] = test system: Staphylococcus epidermidis; assay: Resistance index, ratio of MIC for methicillin resistant Staphylococcus epidermidis ATCC 13199 measured after 2 dilution steps to MIC for Staphylococcus epidermidis ATCC 13199 measured after 48 hrs incubation by microbroth dilution method; assay type: functional

SMILES: O=C(O)C1=Cc2ccccc2N2C[N+]3(CCN(c4cc5c(cc4F)c(=O)c(C(=O)O)cn5C4CC4)CC3)N=C12.[Cl-]
- Drug uptake [1]: Not Active
- Activity (Escherichia coli [2]): Active
- MIC (Streptococcus pneumoniae): 256 µg/mL
- Activity (Escherichia coli [3]): Active
- MIC (Escherichia coli [4]): 0.25 µg/mL
- IC50 (DNA gyrase): 6.02 µM
- Activity (Staphylococcus aureus [5]): 21%
- Drug uptake [6]: Dose-dependent effect
- MBC (Pseudomonas aeruginosa): 2 µg/mL
- Activity (HEK293): Non-Toxic
- MIC (Enterococcus hirae [7]): > 512 µg/mL
- Activity (Escherichia coli [8]): Active
- inhibition at 40 µM (Staphylococcus aureus [9]): 50%
- Activity (Escherichia coli [10]): Active
- inhibition at 40 µM (Staphylococcus aureus [11]): 100%
- MBC (Escherichia coli [12]): 0.5 µg/mL

SMILES: CCn1cc(C(=O)O)c(=O)c2cc(F)c(N3CC[N+]4(CN5C(=N4)C(C(=O)O)=Cc4ccccc45)C(C)C3)c(F)c21.[Cl-] (configuration not stated)
- MIC (Streptococcus pneumoniae): 512 µg/mL
- MBC (Enterococcus hirae [13]): 512 µg/mL
- MIC (Escherichia coli [4]): 0.125 µg/mL
- IC50 (DNA gyrase): 2.44 µM
- Activity (Staphylococcus aureus [5]): 60%
- inhibition (Staphylococcus aureus [14]): inactive
- MBC (Pseudomonas aeruginosa): 1 µg/mL
- Activity (HEK293): Non-Toxic
- MIC (Enterococcus hirae [7]): 512 µg/mL
- MBC (Escherichia coli [12]): 0.25 µg/mL

SMILES: CCn1cc(C(=O)O)c(=O)c2cc(F)c(N3CC[N+]4(CC3)CN3C(=N4)C(C(=O)O)=Cc4ccccc43)nc21.[Cl-]
- Ratio [15]: 16
- MIC (Streptococcus pneumoniae): 256 µg/mL
- MBC (Enterococcus hirae [13]): 512 µg/mL
- MIC (Escherichia coli [4]): 0.5 µg/mL
- Activity (Staphylococcus aureus [5]): 45%
- inhibition (Staphylococcus aureus [14]): inactive
- Ratio [16]: 4
- MBC (Pseudomonas aeruginosa): 1 µg/mL
- Activity (HEK293): Non-Toxic
- MIC (Enterococcus hirae [7]): 512 µg/mL
- MBC (Escherichia coli [12]): 1 µg/mL
